The source of these data is US20250255978A1, “DRUG-DELIVERY NANOPARTICLES AND TREATMENTS FOR DRUG-RESISTANT CANCER” (Cedars-Sinai Medical Center, priority 2016, published 2025).

Experiment in all cases: Cell viability assay (MTS), relative cell survival
Common to all, as to conditions: dose range, 4 h + 44 h incubation

Experiment [1] relates to BT474 (human breast cancer) cells. It counts as cell-based. As to the method: (§1) Plates were rocked for 4 hours at 37° C. and 5% CO2 and then 60 μL of complete media was added to each well to bring the total volume to 100 μL and the incubation was continued, without rocking, for 44 hours at 37° C. and 5% CO2. At the conclusion of the incubation, relative cell viability was determined via MTS assay (Promega) according to manufacturer's instructions. Specifically, the media was removed from the wells and 100 μL of fresh complete media was added to each well. 20 μl of the prepared MTS reagent was added to each well. The plate was then incubated with rocking at 37° C. and 5% CO2 and readings were taken of the plate at 1, 2, and 3 hours at 490 nm using a spectrophotometer.
The cells per well were plated in black-walled, clear-bottom, 96-well plates. […] At the conclusion of the incubation, relative cell viability was determined via MTS assay (Promega) according to manufacturer's instructions. […] The plate was then incubated with rocking at 37° C. and 5% CO2 and readings were taken of the plate at 1, 2, and 3 hours at 490 nm using a spectrophotometer. […]
(§2) The cells per well were plated in black-walled, clear-bottom, 96-well plates. […] At the conclusion of the incubation, relative cell viability was determined via MTS assay (Promega) according to manufacturer's instructions. […]

Experiment [2] relates to BT474-TR (trastuzumab-resistant human breast cancer) cells. It counts as cell-based. The protocol:
as §1, with “The cells per well were plated in black-walled, clear-bottom, 96-well plates. […] Plates” for “Plates”
as §2, §2

In experiment [3] the test system is JIMT1 (human breast cancer cells from a patient naturally resistant to trastuzumab). The experiment is classed as cell-based. The protocol: as §1, with “Relative cell survival after exposure to the described compositions was measured using a cell viability assay. 15,000, 10,000, or 8,000 cells per well were plated in black-walled, clear-bottom, 96-well plates. […] Plates” for “Plates”, “spectrophotometer. […]” for “spectrophotometer.”
The concentration of Eos-001 is reported in μM doxorubicin, and the concentration of lapatinib is reported in μM lapatinib. […] At the conclusion of the incubation, relative cell viability was determined via MTS assay (Promega) according to manufacturer's instructions. […] The plate was then incubated with rocking at 37° C. and 5% CO2 and readings were taken of the plate at 1, 2, and 3 hours at 490 nm on spectrophotometer. […]

Experiment [4] has as its system SKBR3 (human breast cancer) cells. It counts as cell-based. The protocol:
as §1, with “The cells per well were plated in black-walled, clear-bottom, 96-well plates. […] Plates” for “Plates”
(§3) To verify the contribution of HER3 targeted toxicity of the Eos-001 nanoparticles, a HER3 peptide was used as a competitive inhibitor. The HER3 peptide was pre-incubated with the Eos-001 particles, which bound the heregulin targeting domain. […]
as §2

Experiment [5] concerns SKBR3-TR (trastuzumab resistant breast cancer) cells. The experiment is classed as cell-based, human. The protocol: as §1, with “The cells per well were plated in black-walled, clear-bottom, 96-well plates. […] Plates” for “Plates”
as §3, §2

Regarding `CS(=O)(=O)CCNCc1ccc(-c2ccc3ncnc(Nc4ccc(OCc5cccc(F)c5)c(Cl)c4)c3c2)o1` [lapatinib], in experiment [1], the “effect on survival / killing of BT474 cells” value was “similarly effective”. Moreover, the “killing of BT474-TR cells” value in experiment [2] is “slightly effective”. For the same compound, the “effect on survival / killing of JIMT1 cells” value in experiment [3] was “unable to kill”. Besides, in experiment [4], the “killing of SKBR3 cells” value is listed as “similarly effective”. The “killing of SKBR3-TR cells” value in experiment [5] is “slightly effective”.
